{"source": "patent US20230065014A1", "about": "“Nitro-Fatty Acid-Containing Microbubbles and Uses Therefor” (University of Pittsburgh-Of the Commonwealth System of …, priority 2020, published 2023)", "key": {"[1]": {"test_system": "long-term NASH diet-induced liver damage", "conditions": "NASH diet mice; cited from earlier work"}, "[2]": {"test_system": "hepatocytes", "conditions": "in vitro; cited from earlier work"}, "[3]": {"test_system": "fibrotic vascular and tissue remodeling in heart, liver and lung", "conditions": "Ang II, hypoxia and obesity models; cited from earlier work"}, "[4]": {"test_system": "human stellate cells", "conditions": "in vitro; cited from earlier work"}, "[5]": {"biological_target": "T1, PPAR-γ (peroxisome proliferator activated receptor gamma) (Homo sapiens, UniProt P37231)", "T1 sequence (P37231 1-505)": "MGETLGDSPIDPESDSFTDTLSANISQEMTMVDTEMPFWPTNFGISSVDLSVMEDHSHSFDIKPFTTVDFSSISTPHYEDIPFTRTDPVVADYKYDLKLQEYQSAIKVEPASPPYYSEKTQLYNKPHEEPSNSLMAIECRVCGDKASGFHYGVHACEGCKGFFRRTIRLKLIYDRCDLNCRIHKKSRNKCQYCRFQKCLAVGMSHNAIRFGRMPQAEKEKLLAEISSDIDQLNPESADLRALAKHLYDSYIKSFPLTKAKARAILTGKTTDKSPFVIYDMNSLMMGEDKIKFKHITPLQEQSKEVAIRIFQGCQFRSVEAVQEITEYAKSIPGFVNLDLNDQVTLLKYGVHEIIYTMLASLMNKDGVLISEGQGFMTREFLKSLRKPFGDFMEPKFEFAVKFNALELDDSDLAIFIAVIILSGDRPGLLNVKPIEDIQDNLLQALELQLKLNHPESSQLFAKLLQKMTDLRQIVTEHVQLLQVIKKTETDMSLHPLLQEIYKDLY", "conditions": "as described in WO 2010/014889 A2; cited from earlier work"}, "[6]": {"test_system": "Bleomycin-treated 3 mo old C57Bl6 mice", "assay": "Reversal of established fibrosis in bleomycin-treated mice", "type": "in vivo", "conditions": "7.5 mg/kg oral, 2 additional weeks", "source_text": "Nitroalkenes can reverse established fibrosis."}}}
{"compound": "NO2-oleic acid", "values": [{"measurement": "RNA-sequencing analysis of liver tissue", "setting": "[1]", "value": "inflammation and fibrosis as major pathways suppressed"}, {"measurement": "SREBPI proteolytic activation and subsequent lipogenesis gene expression", "setting": "[1]", "value": "inhibition of SREBPI proteolytic activation and subsequent lipogenesis gene expression"}, {"measurement": "body composition and energy metabolism (CLAMS and NMR-based analysis)", "setting": "[1]", "value": "improved body composition and energy metabolism"}, {"measurement": "hepatic triglyceride (TG) accumulation", "setting": "[1]", "value": "inhibiting hepatic triglyceride (TG) accumulation"}, {"measurement": "liver steatosis and fibrosis by photoacoustic-ultrasound imaging", "setting": "[1]", "value": "robust inhibition of liver steatosis and fibrosis"}, {"measurement": "TG biosynthesis and accumulation", "setting": "[2]", "value": "inhibited TG biosynthesis and accumulation"}, {"measurement": "fibrotic vascular and tissue remodeling", "setting": "[3]", "value": "inhibit fibrotic vascular and tissue remodeling"}, {"measurement": "fibrogenesis", "setting": "[4]", "value": "inhibited fibrogenesis"}, {"measurement": "activation of the PPAR-γ receptor", "setting": "[5]", "value": "nanomolar activators"}, {"measurement": "Ashcroft scoring", "setting": "[6]", "value": "decreased collagen deposition"}, {"measurement": "Masson's trichrome and αSMA staining", "setting": "[6]", "value": "resolution of pathologic remodeling"}, {"measurement": "qRT-PCR of TGFβ, Col1A1, αSMA, vimentin, MMP7 and E-cadherin expression", "setting": "[6]", "value": "inhibition of these pro-fibrotic indices"}, {"measurement": "reversal of fibrosis", "setting": "[6]", "value": "significant reversal of fibrosis"}]}
{"compound": "Nitro-linoleic acid", "values": [{"measurement": "fibrotic vascular and tissue remodeling", "setting": "[3]", "value": "inhibit fibrotic vascular and tissue remodeling"}, {"measurement": "activation of the PPAR-γ receptor", "setting": "[5]", "value": "nanomolar activators"}]}
{"compound": "CCCCC/C=C(\\C/C=C\\CCCCCCCC(=O)O)[N+](=O)[O-]", "note": "[12-nitro linoleic acid, 12-nitrolinoleic acid]", "values": [{"measurement": "activation of the PPAR-γ receptor", "setting": "[5]", "value": "potent, selective activators"}]}
{"compound": "CCCCCC=CC/C(=C\\CCCCCCCC(=O)O)[N+](=O)[O-]", "note": "(stereo in doubt) [10-nitro linoleic acid, (9E,12Z)-10-nitrooctadeca-9,12-dienoic acid]", "values": [{"measurement": "activation of the PPAR-γ receptor", "setting": "[5]", "value": "potent, selective activators"}]}
